Measured values as given in US9902726B2, “Pyridone-sulfone morphinan analogs as opioid receptor ligands” (Purdue Pharma L.P., priority 2013, dated 2018).

Assays:
μ-opioid receptor [1] = target: T1, μ-opioid receptor (Homo sapiens (Human), UniProt P35372); assay: μ-opioid receptor [35S]GTPγS functional assay, HEK-293 or CHO cells; format: biochemical; settings: for Emax: HEK-293 or CHO cells, relative to DAMGO
Procedure: (§1) μ-Opioid Receptor Functional Assay Procedures: [^35S]GTPγS functional assays were conducted using freshly thawed μ-receptor membranes prepared in-house from a cell line expressing recombinant μ opioid receptor in a HEK-293, CHO, or U-2 OS cell background or purchased from a commercial source (Perkin Elmer, Shelton, Conn.). Assay reactions were prepared by sequentially adding the following reagents to binding buffer (100 mM NaCl, 10 mM MgCl2, 20 mM HEPES, pH 7.4) on ice (final concentrations indicated): membrane protein (0.026 mg/mL), saponin ([…]), GDP ([…]) and [^35S]GTPγS (0.20 nM; Perkin Elmer, Shelton, Conn.). The prepared membrane solution (190 μl/well) was transferred to 96-shallow well polypropylene plates containing 10 μl of 20× concentrated stock solutions of the agonist [D-Ala^2, N-methyl-Phe^4 Gly-ol^5]-enkephalin (DAMGO) prepared in dimethyl sulfoxide (DMSO). Plates were incubated for 30 min at about 25° C. with shaking. […] Data were analyzed using the sigmoidal dose-response curve fitting functions in GraphPad PRISM v. 3.0, or an in-house function for non-linear, sigmoidal dose-response curve-fitting. [^35S]GTPγS functional assays can also be conducted using freshly thawed μ-receptor membranes prepared from a cell line expressing recombinant opioid receptor in a CHO-K1 cell background.
(§2) μ-Opioid Receptor Functional Data: μ GTP EC50 is the concentration of a compound providing 50% of the maximal response for the compound at a μ-opioid receptor.
(§3) μ GTP Emax (%) is the maximal effect elicited by a compound relative to the effect elicited by DAMGO, a standard μ agonist. Generally, the μ GTP Emax (%) value measures the efficacy of a compound to treat or prevent pain or other Conditions.

[2] = target: recombinant human kappa opioid receptor (κ) (Homo sapiens (Human), UniProt P41145); assay: κ-opioid receptor radioligand dose-displacement binding assay ([3H]-U69,593)
Procedure: κ-Opioid Receptor Binding Assay Procedures: Membranes from HEK-293 cells, CHO cells, or U-2 OS cells expressing the recombinant human kappa opioid receptor (κ) were prepared by lysing cells in ice cold hypotonic buffer (2.5 mM MgCl2, 50 mM HEPES, pH 7.4) (10 mL/10 cm dish) followed by homogenization with a tissue grinder/Teflon pestle. Membranes from a cell line naturally expressing kappa opioid receptor can also be used. Membranes were collected by centrifugation at 30,000×g for 15 min at 4° C. and pellets were resuspended in hypotonic buffer to a final concentration of 1-3 mg/mL. Protein concentrations were determined using the BioRad protein assay reagent with bovine serum albumen as standard. Aliquots of κ receptor membranes were stored at −80° C.
Radioligand dose displacement assays used 0.4 nM [^3H]-U69,593 (GE Healthcare, Piscataway, N.J.; 40 Ci/mmole) with 15 μg membrane protein (recombinant κ opioid receptor expressed in HEK 293 cells; in-house prep) in a final volume of 200 μl binding buffer (5% DMSO, 50 mM Trizma base, pH 7.4). Non-specific binding was determined in the presence of 10 μM unlabeled naloxone or U69,593. All reactions were performed in 96-well polypropylene plates for 1 hour at a temperature of about 25° C.

κ opioid receptor [3] = target: T2, κ opioid receptor (Homo sapiens (Human), UniProt P41145); assay: κ-opioid receptor [35S]GTPγS functional assay, U-2 OS cells; format: biochemical; settings: for Emax: U-2 OS cells, relative to U69,593
Procedure: (§4) κ-Opioid Receptor Functional Assay Procedures: Functional [^35S]GTPγS binding assays were conducted as follows. κ opioid receptor membrane solution was prepared by sequentially adding final concentrations of 0.026 μg/μl κ membrane protein (in-house), 10 μg/mL saponin, 3 μM GDP and 0.20 nM [^35S]GTPγS to binding buffer (100 mM NaCl, 10 mM MgCl2, 20 mM HEPES, pH 7.4) on ice. The prepared membrane solution (190 μl/well) was transferred to 96-shallow well polypropylene plates containing 10 μl of 20× concentrated stock solutions of agonist prepared in DMSO. Plates were incubated for 30 min at a temperature of about 25° C. with shaking.
(§5) κ-Opioid Receptor Functional Data: κ GTP EC50 is the concentration of a compound providing 50% of the maximal response for the compound at a κ receptor.
(§6) κ GTP Emax (%) is the maximal effect elicited by a compound relative to the effect elicited by U69,593.

μ-opioid receptor [4] = target: T1, μ-opioid receptor; assay: μ-opioid receptor [35S]GTPγS functional assay, U-2 OS cells; format: biochemical; settings: for Emax: U-2 OS cells, relative to DAMGO
Procedure: as §1, §2, §3

κ opioid receptor [5] = target: T2, κ opioid receptor; assay: κ-opioid receptor [35S]GTPγS functional assay, HEK-293 or CHO cells; format: biochemical; settings: for Emax: HEK-293 or CHO cells, relative to U69,593
Procedure: as §4, §5, §6

μ-opioid receptor [6] = target: T1, μ-opioid receptor; assay: μ-opioid receptor radioligand dose-displacement binding assay ([3H]-diprenorphine)
Procedure: Radioligand dose-displacement binding assays for μ-opioid receptors used 0.3 nM [^3H]-diprenorphine (Perkin Elmer, Shelton, Conn.), with 5 mg membrane protein/well in a final volume of 500 μl binding buffer (10 mM MgCl2, 1 mM EDTA, 5% DMSO, 50 mM HEPES, pH 7.4). Reactions were carried out in the absence or presence of increasing concentrations of unlabeled naloxone. All reactions were conducted in 96-deep well polypropylene plates for 2 hours at room temperature. Binding reactions were terminated by rapid filtration onto 96-well Unifilter GF/C filter plates (Perkin Elmer, Shelton, Conn.), presoaked in 0.5% polyethylenimine using a 96-well tissue harvester (Perkin Elmer, Shelton, Conn.) followed by performing three filtration washes with 500 μl of ice-cold binding buffer. Filter plates were subsequently dried at 50° C. for 2-3 hours. BetaScint scintillation cocktail (Perkin Elmer, Shelton, Conn.) was added (50 μl/well), and plates were counted using a Packard Top-Count for 1 min/well. The data were analyzed using the one-site competition curve fitting functions in GraphPad PRISM™ v.

Compound | EC50 (μ-opioid receptor [1]) [nM] | Emax (μ-opioid receptor [1]) [%] | Ki [2] [nM] | EC50 (κ opioid receptor [3]) [nM] | Emax (κ opioid receptor [3]) [%] | EC50 (μ-opioid receptor [4]) [nM] | Emax (μ-opioid receptor [4]) [%] | EC50 (κ opioid receptor [5]) [nM] | Emax (κ opioid receptor [5]) [%] | Ki (μ-opioid receptor [6]) [nM]
CS(=O)(=O)c1cc2c([nH]c1=O)C[C@]13CCN(CC4CC4)[C@H](Cc4ccc(O)cc41)[C@@H]3C2 [Compound 9, (6R,6aR,12aS)-15-(cyclopropylmethyl)-2-hydroxy-9-(methylsulfonyl)-6a,7,11,12-tetrahydro-5H-6,12a-(epiminoethano)naphtho[2,1-g]quinolin-10(6H)-one] | > 20000 | 2.5 |  |  |  |  |  |  |  | 
CN1CC[C@]23Cc4[nH]c(=O)c(S(=O)(=O)c5ccccc5)cc4C[C@@]2(O)[C@H]1Cc1ccc(O)cc13 [Compound 8, (6R,6aS,12aR)-2,6a-dihydroxy-15-methyl-9-(phenylsulfonyl)-6a,7,11,12-tetrahydro-5H-6,12a-(epiminoethano)naphtho[2,1-g]quinolin-10(6H)-one] |  |  | 19.5 ± 2.69 | 35.8 ± 3.77 | 82.3 ± 3.67 | 77.5 ± 10.9 | 61.7 ± 1.67 |  |  | 
CN1CC[C@]23Cc4[nH]c(=O)c(S(C)(=O)=O)cc4C[C@H]2[C@H]1Cc1ccc(O)cc13 [Compound 11, (6R,6aR,12aS)-2-hydroxy-15-methyl-9-(methylsulfonyl)-6,6a,7,12-tetrahydro-5H-6,12a-(epiminoethano)naphtho[2,1-g]quinolin-10(11H)-one] | 259 ± 53.5 | 20.7 ± 1.76 | 13.1 ± 2.27 |  |  |  |  | 107 ± 28.7 | 16.7 ± 1.21 | 
CN1CC[C@]23Cc4[nH]c(=O)c(S(=O)(=O)c5ccccc5)cc4C[C@H]2[C@H]1Cc1ccc(O)cc13 [Compound 12, (6R,6aR,12aS)-2-hydroxy-15-methyl-9-(phenylsulfonyl)-6,6a,7,12-tetrahydro-5H-6,12a-(epiminoethano)naphtho[2,1-g]quinolin-10(11H)-one] | 83.1 ± 24.1 | 19.8 ± 2.63 | 2.78 ± 0.75 |  |  |  |  | 17.2 ± 4.22 | 17.2 ± 1.04 | 
O=c1[nH]c2c(cc1S(=O)(=O)c1ccccc1)C[C@H]1[C@H]3Cc4ccc(O)cc4[C@@]1(CCN3CC1CC1)C2 [Compound 10, (6R,6aR,12aS)-15-(cyclopropylmethyl)-2-hydroxy-9-(phenylsulfonyl)-6a,7,11,12-tetrahydro-5H-6,12a-(epiminoethano)naphtho[2,1-g]quinolin-10(6H)-one] | > 20000 | 2 |  |  |  |  |  |  |  | 
CS(=O)(=O)c1cc2c([nH]c1=O)C[C@]13CCN(CC4CC4)[C@H](Cc4ccc(O)cc41)[C@]3(O)C2 [Compound 5, (6R,6aS,12aR)-15-(cyclopropylmethyl)-2,6a-dihydroxy-9-(methylsulfonyl)-6a,7,11,12-tetrahydro-5H-6,12a-(epiminoethano)naphtho[2,1-g]quinolin-10(6H)-one] | > 20000 | 1 | 0.36 ± 0.091 | 0.85 ± 0.075 | 55.7 ± 2.4 | > 20000 | 2 | 1.27 ± 0.3 | 10.3 ± 0.67 | 0.76 ± 0.13
O=c1[nH]c2c(cc1S(=O)(=O)c1ccccc1)C[C@@]1(O)[C@H]3Cc4ccc(O)cc4[C@@]1(CCN3CC1CC1)C2 [Compound 6, (6R,6aS,12aR)-15-(cyclopropylmethyl)-2,6a-dihydroxy-9-(phenylsulfonyl)-6a,7,11,12-tetrahydro-5H-6,12a-(epiminoethano)naphtho[2,1-g]quinolin-10(6H)-one] |  |  |  | 0.26 ± 0.055 | 33.2 ± 2.84 | > 20000 | 2 |  |  | 
CN1CC[C@]23Cc4[nH]c(=O)c(S(C)(=O)=O)cc4C[C@@]2(O)[C@H]1Cc1ccc(O)cc13 [Compound 7, (6R,6aS,12aR)-2,6a-dihydroxy-15-methyl-9-(methylsulfonyl)-6a,7,11,12-tetrahydro-5H-6,12a-(epiminoethano)naphtho[2,1-g]quinolin-10(6H)-one] |  |  |  | 203 ± 47.7 | 71.3 ± 3.33 | 148 ± 6.21 | 68 ± 1.15 |  |  | 
